Measured values taken from patent US6262023A, “WD-40 derived peptides and uses thereof” (The Board of Trustees of the Leland Stanford Junior …, priority 1995, dated 2001).

Legend:
βPKC [1] = assay: βPKC translocation (soluble vs particulate fraction) in Xenopus oocytes; assay type: cell-based; details: 50 μM peptide microinjected
Method: Insulin causes the translocation of βPKC, but not other PKC isozymes, from a cytosolic form to a membrane-associated form, as evidenced by the relative levels of PKC in the soluble vs. the particulate fraction of oocyte homogenate. To assess the effects of RACK1 WD-40-derived peptides on insulin-induced PKC translocation, 50 nl of a 20 mM NaCl solution containing the indicated peptides were microinjected into Xenopus oocytes. The oocytes were then homogenized, and the relative amount of PKC in the soluble and particulate fractions was assayed. The protocol followed was a modification of a method described by Smith, et al. (1992).
Batches of 50 oocytes were microinjected with either peptide rVI (SEQ ID NO:7; 50 μM; lanes 3, 4), peptide I (SEQ ID NO:1; 50 μM, lanes 7, 8) or injection solution (NaCl 20 mM, lanes 1,2 and 5,6). Homogenates from each batch were prepared 60 minutes after microinjection (lanes 1-4) or 60 minutes after addition of insulin (lanes 5-8). The homogenates were centrifuged at 10,000 g for 3 minutes, the upper layer (containing fat and yolk) was removed, and the remainder was frozen at -70° C. […] The amount of PKC in each fraction was determined by Western blot using anti-βPKC antibodies (1:1000 dilution; Seikagaku Kogyo, Tokyo, Japan). Bound primary antibodies were detected by chemiluminescence as described in Example 3, part C.

PKC binding to RACK1 = assay: Overlay / overlay-extraction assay: inhibition of PKC binding to recombinant RACK1 by peptides; set-up: species or system rat; details: 10 μM peptide preincubated with PKC isozyme mixture; compared with binding in the absence of added peptide; n=3
Method: Purified recombinant RACK1 protein (100-250 μg per lane, produced as detailed in Example 2) was subjected to SDS/PAGE and blotted onto nitrocellulose membranes (Ausubel). The nitrocellulose membranes were cut into strips, which were incubated for 0.5 hr in overlay buffer (Example 1) in the presence or absence of a mixture of PKC isozymes (α, β, γ, ε and .zeta., ~10 nM each final concentration) and PKC activators (60 μg/ml phosphatidylserine (PS), 2 μg/ml diacylglycerol (DG), and 1 mM CaCl2). Unbound material was removed by five washes, 5-min each, in overlay wash buffer. Where indicated, PKC activators were present during the incubation of PKC with the nitrocellulose strips. The conditions for each sample and corresponding results are presented in part D below.
The variation in the overlay protocol consisted of incubating the putative binding peptides with a mixture of PKC isozymes for 15 minutes at room temperature before the mixture was used to contact the nitrocellulose strips containing immobilized RACK1.
Nitrocellulose strips containing immobilized RACK1, that had been contacted with a solution containing a mixture of PKC isozymes, were washed and the area corresponding to the 36 kDa (RACK1-containing) band was cut out. The pieces (containing PKC/RACK1 complexes) were incubated with sample buffer for 10 minutes at 80° C. The sample buffer and the nitrocellulose pieces were then placed in wells in the PAGE gel and subjected to SDS-PAGE to elute the bound proteins. The gel was blotted onto nitrocellulose and a Western blot analysis was carried out using the mixture of antibodies (specific for PKC α, β, γ, δ, ε and .zeta. isozymes) described in Example 1 part B. Bound antibodies were detected by ^125 I-protein A.
Peptides derived from or homologous to WD-40 repeats of RACK1 were tested for their ability to inhibit PKC binding to recombinant RACK1. Binding of PKC to RACK1 was carried out using a variation of the overlay procedure described in Example 3 part B. In the experimental samples, peptides were incubated with a solution containing a mixture of rat brain PKC isozymes (~10 nM each) for 15 minutes at room temperature.
Following completion of the modified overlay protocol, the samples were subjected to the overlay-extraction protocol detailed in part B, above.

δ and εPKC isozymes = assay: PKC isozyme translocation and degradation in cardiac myocytes; assay type: cell-based, rat; details: peptide introduced into cardiac myocytes
Text: This peptide-induced translocation was followed by degradation of δ and εPKC isozymes.

βPKC [2] = molecular target: βPKC (Rattus norvegicus, UniProt P68403); assay: PKC overlay of immobilized peptides (slot-blot); assay type: binding; set-up: All the solutions contained 5 nM rat brain PKC in peptide overlay buffer; from tissue; host or cells: rat brain; details: DG and calcium
βPKC (Rattus norvegicus, UniProt P68403), sequence (P68403 whole entry): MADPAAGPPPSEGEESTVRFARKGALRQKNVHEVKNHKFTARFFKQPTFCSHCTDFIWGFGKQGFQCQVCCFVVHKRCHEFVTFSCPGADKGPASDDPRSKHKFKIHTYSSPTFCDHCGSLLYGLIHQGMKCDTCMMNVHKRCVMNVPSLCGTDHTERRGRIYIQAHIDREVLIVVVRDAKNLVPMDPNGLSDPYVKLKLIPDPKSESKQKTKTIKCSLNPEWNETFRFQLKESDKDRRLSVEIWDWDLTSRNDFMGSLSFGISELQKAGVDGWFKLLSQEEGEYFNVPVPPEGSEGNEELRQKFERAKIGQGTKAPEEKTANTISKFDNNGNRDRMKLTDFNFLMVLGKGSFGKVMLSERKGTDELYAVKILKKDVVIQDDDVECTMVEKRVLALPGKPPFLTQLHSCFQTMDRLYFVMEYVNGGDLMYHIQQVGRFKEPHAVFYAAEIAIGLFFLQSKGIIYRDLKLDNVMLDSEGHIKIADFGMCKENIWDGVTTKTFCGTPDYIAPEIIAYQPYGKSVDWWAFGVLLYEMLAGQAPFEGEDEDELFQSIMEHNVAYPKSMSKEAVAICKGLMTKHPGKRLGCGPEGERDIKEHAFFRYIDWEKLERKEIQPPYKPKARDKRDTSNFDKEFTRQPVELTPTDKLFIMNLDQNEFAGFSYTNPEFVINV
Method: The binding of βPKC to peptide I (SEQ ID NO:1), peptide rVI (SEQ ID NO:7) and control peptide (SEQ ID NO:9) was assessed using a PKC overlay assay similar to that described in Example 3. Increasing amounts of peptides (0.5 μmole, 1.0 μmole, 5.0 μmole and 10.0 μmole) suspended in 20 mM NaCl were applied individually onto nitrocellulose using a slot-blot apparatus (Schleicher and Schuell, Keene, N.H.). The nitrocellulose membrane was washed three times, minutes per wash, in peptide overlay buffer and incubated for two hours in peptide overlay block buffer. The membrane was cut into sections and the sections were transferred to different PKC-containing solutions and incubated for 30 minutes at room temperature. All the solutions contained 5 nM rat brain PKC in peptide overlay buffer. Some solutions additionally contained PS, DG, and calcium. The membranes were then washed three times, 15 minutes per wash, in peptide overlay buffer and incubated in peptide overlay block buffer containing anti-βPKC monoclonal antibodies (1:1000 dilution; Seikagaku Kogyo, Tokyo, Japan). […]
Binding of PKC was determined using chemiluminescence as described in Example 3, part C. Quantitation of PKC binding was carried out using a "MICRO SCAN" 1000 gel analyzer (Galai Inc., Yokneam, Israel).

peptide I: 15-residue peptide homologous to a sequence in the sixth WD-40 repeat of RACK1; PKC antagonist (KGDYEKILVALCGGN)
effect on insulin (hormone)-induced βPKC translocation (βPKC [1]; 60 minutes after addition of insulin): inhibited insulin-induced βPKC translocation | βPKC distribution / translocation in the absence of insulin treatment (βPKC [1]; homogenate 60 minutes after microinjection): did not affect βPKC distribution | inhibition of PKC binding to recombinant RACK1 (PKC binding to RACK1): 81±6% | effect on NE-induced translocation of PKC isozymes (δ and εPKC isozymes; norepinephrine 2 μM): inhibited | degradation of δ and εPKC isozymes (δ and εPKC isozymes): nor does it induce PKC degradation | translocation / distribution of δ and εPKC isozymes in the absence of hormone stimulation (δ and εPKC isozymes): does not affect PKC distribution | peptide amount at which activated PKC bound to immobilized peptide (as low as) (βPKC [2]; PKC with PS, 5 nM rat brain PKC, 0.5-10.0 μmole peptide on nitrocellulose): ≤ 5 µmol | binding of unactivated PKC to immobilized peptide (βPKC [2]; PKC without PS): did not bind
